Results taken from publication PMC8389907 (Journal of Medicinal Chemistry, 2021).
Read-outs that look alike come from different tables or passages of the source.

Experiments:
WH1 human fibroblasts = test: MTT cell viability assay, WH1 fibroblasts; type: cell-based; conditions: Fibroblast, 72 h treatment
Description: (§1) The cell lines DU145 (HTB-81, human prostate carcinoma), PC3 (CRL-1435, human prostate adenocarcinoma), MCF7 (HTB-22, human breast adenocarcinoma), MDA-MB231 (HTB-26, human breast adenocarcinoma), and HCT116 (CCL-247, human colorectal carcinoma) were obtained from ATCC (American Type Culture Collection, Manassas, VA, USA); WH1 human fibroblasts were kindly provided by Dr. Guven.[51] All the cells were maintained under standard culture conditions (37 °C; 5% CO2) in the RMPI1640 medium (PC3, MCF7, and MDA-MB231 cells), while DU145 and HCT116 cells were in the DMEM and Iscove’s medium (WH1 cells) supplemented with 10% fetal calf serum, 1% glutamine, and 1% antibiotics mixture; for HCT116 and DU145 cells, 1% sodium pyruvate and 1% non-essential amino acids were also added to the culture medium.
(§2) The 3-(4,5-dimethylthiazol-2-yl)-2,5-diphenyltetrazolium bromide (MTT) assay was performed on all the cell lines tested as previously described[52] with minor modifications. Briefly, according to the growth profiles previously defined for each cell line, adequate numbers of cells were plated in each well of a 96-well plate in 0.1 mL of complete culture medium. Cells were allowed to attach for 24 h before the treatment at 37 °C for 72 h with the compounds at concentrations ranging between 0.1 and 75 μM, bringing the final volume to 0.2 mL/well. Each experiment included eight replications per concentration tested; control samples were run with 0.2% DMSO. At the end of the incubation period, MTT (0.05 mL of a 2 mg/mL stock solution in PBS) was added to each well for 3 h at 37 °C. Cell supernatants were then carefully removed, the blue formazan crystals formed through MTT reduction by metabolically active cells were dissolved in 0.120 mL of DMSO, and the corresponding optical densities were measured at 570 nm using a Universal Microplate Reader EL800 (Bio-Tek, Winooski, VT).
(§3) IC50 values were estimated from the resulting concentration–response curves by nonlinear regression analysis using GraphPad Prism software, v. 5.0 (GraphPad, San Diego, CA, USA). Differences between IC50 values were evaluated statistically by analysis of variance with a Bonferroni post-test for multiple comparisons.

DU145 cells = test: MTT cell viability assay, DU145; type: cell-based; conditions: Homo sapiens, DU-145; supplement csv, unit inferred; read-out: DU145 IC50
Description: as §1, §2, §3

MCF7 cells = test: MTT cell viability assay, MCF7; type: cell-based; conditions: Homo sapiens
Description: as §1, §2, §3

HCT116 cells = test: MTT cell viability assay, HCT116; type: cell-based; conditions: Homo sapiens, HCT-116; supplement csv, unit inferred; read-out: HCT116 IC50
Description: as §1, §2, §3

PC3 cells = test: MTT cell viability assay, PC3; type: cell-based; conditions: Homo sapiens, PC-3; supplement csv, unit inferred; read-out: PC3 IC50
Description: as §1, §2, §3

HBL100 cells = test: MTT cell viability assay, non-tumorigenic HBL100; type: cell-based; conditions: Homo sapiens, HBL-100, 72 h treatment
Description: as §2, §3

MCF7/ADR cells = test: MTT cell viability assay, DOX-resistant MCF7/ADR; type: cell-based, human; conditions: for IC50: Homo sapiens, NCI/ADR-RES, 72 h treatment, MTT; for R.I. (resistance index): MCF7/ADR vs MCF7
Description: as §2, §3

MDA-MB231 cells = test: MTT cell viability assay, MDA-MB231; type: cell-based; conditions: Homo sapiens, MDA-MB-231; supplement csv, unit inferred; read-out: MDA-MB231 IC50
Description: as §1, §2, §3

[1] = 72 h treatment, MTT, read-out: IC50 MCF7

| Compound | IC50 (WH1 human fibroblasts) [µM] | IC50 (DU145 cells) [µM] | melting point [°C] | IC50 (MCF7 cells; [1]) [µM] | IC50 (HCT116 cells) [µM] | IC50 (PC3 cells) [µM] | IC50 (HBL100 cells) [µM] | IC50 (MCF7/ADR cells) [µM] | R.I. (resistance index) (MCF7/ADR cells) | IC50 (MDA-MB231 cells) [µM] | IC50 (MCF7 cells; supplement csv, unit inferred, read-out: MCF7 IC50) [µM] |
| --- | --- | --- | --- | --- | --- | --- | --- | --- | --- | --- | --- |
| O=C(O)c1cn(C2CC2)c2cc(N3CCN(c4ccc([N+](=O)[O-])c(C(F)(F)F)c4)CC3)c(F)cc2c1=O [Compound 1a, 1-Cyclopropyl-6-fluoro-7-(4-(4-nitro-3-(trifluoromethyl)phenyl)piperazin-1-yl)-4-oxo-1,4-dihydroquinoline-3-carboxylic Acid] | 9.17 ± 0.6 | 7.78 ± 1.52 | 296 to 298 | 8.8 ± 1.59 | 9.67 ± 0.36 | 6.45 ± 0.19 | 7.79 ± 0.66 | 8.72 ± 1.25 | 1.0 | 8.06 ± 1.05 |  |
| CCn1cc(C(=O)O)c(=O)c2cc(F)c(N3CCN(c4ccc([N+](=O)[O-])c(C(F)(F)F)c4)CC3)cc21 [Compound 1b, 1-Ethyl-6-fluoro-7-(4-(4-nitro-3-(trifluoromethyl)phenyl)piperazin-1-yl)-4-oxo-1,4-dihydroquinoline-3-carboxylic Acid] | 5.35 ± 1.14 | 2.85 ± 0.01 | 310 to 312 |  | 10.4 ± 1.5 | 3.07 ± 0.64 | 9.26 ± 1.79 | 5.63 | 1.1 | 6.93 ± 0.85 | 5.24 ± 0.7 |
| COC(=O)c1cn(C2CC2)c2cc(N3CCN(c4ccc([N+](=O)[O-])c(C(F)(F)F)c4)CC3)c(F)cc2c1=O [Compound 3a, Methyl 1-Cyclopropyl-6-fluoro-7-(4-(4-nitro-3-(trifluoromethyl)phenyl)piperazin-1-yl)-4-oxo-1,4-dihydroquinoline-3-carboxylate] | 8.38 ± 1.2 | 5.67 ± 0.06 | 265 to 267 | 15.5 ± 1.2 | 6.93 ± 1.53 | 15.9 ± 0.5 | 10.6 ± 2.4 | 19.6 ± 3.2 | 1.3 | 10.7 ± 1.9 |  |
| CCn1cc(C(=O)OC)c(=O)c2cc(F)c(N3CCN(c4ccc([N+](=O)[O-])c(C(F)(F)F)c4)CC3)cc21 [Compound 3b, Methyl 1-Ethyl-6-fluoro-7-(4-(4-nitro-3-(trifluoromethyl)phenyl)piperazin-1-yl)-4-oxo-1,4-dihydroquinoline-3-carboxylate] | 9 ± 1.91 | 6.06 ± 0.51 | 236 to 238 | 11.7 ± 1.4 | 9.73 ± 2.25 | 15.3 ± 1.2 | 12 ± 1.7 | 15 ± 2.1 | 1.3 | 10.2 ± 3.1 |  |
| COC(=O)c1cn(C2CC2)c2cc(N3CCN(CCNc4ccc([N+](=O)[O-])c(C(F)(F)F)c4)CC3)c(F)cc2c1=O [Compound 6a, Methyl 1-Cyclopropyl-6-fluoro-7-(4-(2-((4-nitro-3-(trifluoromethyl)phenyl)amino)ethyl)piperazin-1-yl)-4-oxo-1,4-dihydroquinoline-3-carboxylate] | 10.5 ± 2.5 | 4.8 ± 0.96 | 231 to 233 | 16.8 ± 2.4 | 15.7 ± 2 | 6.72 ± 0.35 | 9.76 ± 0.9 | 15.1 ± 2.3 | 0.9 | 16.1 ± 2.1 |  |
| COC(=O)c1cn(C2CC2)c2cc(N3CCN(CCCNc4ccc([N+](=O)[O-])c(C(F)(F)F)c4)CC3)c(F)cc2c1=O [Compound 6b, Methyl 1-Cyclopropyl-6-fluoro-7-(4-(3-((4-nitro-3-(trifluoromethyl)phenyl)amino)propyl)piperazin-1-yl)-4-oxo-1,4-dihydroquinoline-3-carboxylate] | 13.2 ± 3.4 | 14 ± 1.4 | 202 to 204 | 12.1 ± 1.1 | 5.21 ± 0.73 | 3.17 ± 0.47 | 12.2 ± 2 | 18.76 ± 0.1 | 1.5 | 3.76 ± 0.94 |  |
